Counter-ions that a name gives are not always drawn.
target: T1, MASP-2 (CCP1-CCP2-SP) (Homo sapiens, UniProt O00187); assay: Enzymatic Assay for MASP-2 (fluorogenic substrate); assay type: biochemical; conditions: room temperature, 20 mM HEPES pH 7.4, 140 mM NaCl, 0.1% Tween 20, 20 min
T1 construct: 15 μL of Enzyme MASP-2 (CCP1-CCP2-SP) in Assay Buffer
Procedure: Enzymatic Assay for MASP-2
The MASP-2 assay utilizes a fluorogenic substrate, based on the cleavage site for its natural substrate C2. The assay is run at room temperature in an assay buffer containing 20 mM HEPES, pH 7.4, 140 mM NaCl and 0.1% Tween 20. Assay parameters are adjusted such that the assay is linear with respect to time, enzyme, and substrate concentrations. Under these optimized assays conditions, IC50 values are equivalent to Ki values, except in a few cases of “tight binding” inhibitors. Cases of “tight binding” or possible “slow binding” inhibitors are handled by the methods described in Copeland R. A. (2013) Evaluation of Enzyme Inhibitors in Drug Discovery. 2nd Ed., John Wiley and Sons, Inc., Chapters 5-7.
The MASP-2 assay protocol is carried out as follows. Test compounds are serially diluted in DMSO and then 100 nL of each dilution is transferred to the assay plate(s). 10 μL of Assay Buffer is added, followed by 15 μL of Enzyme MASP-2 (CCP1-CCP2-SP) in Assay Buffer. 15 μL of Substrate in Assay Buffer is then added and mixed to start the reactions. After 20 min at room temperature, 15 μL of a stop solution (0.1 M acetic acid) is added, mixed and the plates are read on a SpectraMax i3× Microplate Reader and exported as Excel files. Each assay plate included a “no inhibitor” (DMSO Only) control, a “no enzyme” control and a reference inhibitor control. % Activity values=100*(average test comp. fluorescence-average “no enzyme” fluorescence)/(average “DMSO only” fluorescence-average “no enzyme” fluorescence). IC50 and Ki values are very reproducible, falling well within ±2-fold.

T1 sequence (O00187 445-686 limits assumed): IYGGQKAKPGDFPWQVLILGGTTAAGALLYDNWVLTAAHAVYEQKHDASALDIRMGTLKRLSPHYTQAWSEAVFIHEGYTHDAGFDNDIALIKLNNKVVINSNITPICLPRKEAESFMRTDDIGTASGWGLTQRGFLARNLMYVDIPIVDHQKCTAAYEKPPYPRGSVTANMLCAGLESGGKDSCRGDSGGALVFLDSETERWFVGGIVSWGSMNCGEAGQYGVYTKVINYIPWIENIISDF
T1 sequence (O00187 287-444 partner limits assumed): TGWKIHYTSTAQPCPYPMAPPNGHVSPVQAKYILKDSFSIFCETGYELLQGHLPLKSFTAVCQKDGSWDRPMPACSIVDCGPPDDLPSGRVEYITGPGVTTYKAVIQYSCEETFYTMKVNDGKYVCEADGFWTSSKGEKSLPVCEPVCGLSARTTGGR

Ki, < 500 nM:
N#C[C@H]1C[C@@H](C(=O)NCc2ccc(C(=N)N)cc2)N(C(=O)[C@H](N)CCc2ccccc2)C1 [Compound I-6, (2S,4S)-1-((R)-2-amino-4-phenylbutanoyl)-N-(4-carbamimidoylbenzyl)-4-cyanopyrrolidine-2-carboxamide ditrifluoroacetate]
N=C(N)c1ccc(CNC(=O)[C@@H]2C[C@@H](c3ccccc3)CN2C(=O)[C@H](N)CCc2ccccc2)cc1 [Compound I-11, (2S,4S)-1-((R)-2-amino-4-phenylbutanoyl)-N-(4-carbamimidoylbenzyl)-4-phenylpyrrolidine-2-carboxamide dihydrochloride]
N=C(N)c1ccc(CNC(=O)[C@@H]2CC(n3cccn3)CN2C(=O)[C@H](N)CCc2ccccc2)cc1 (stereo partly drawn) [Compound I-22, Dihydrochloride]
N=C(N)c1ccc(CNC(=O)[C@@H]2C[C@H](c3ccccc3)CN2C(=O)[C@H](N)CCc2ccccc2)cc1 [Compound I-3, (2S,4R)-1-((R)-2-amino-4-phenylbutanoyl)-N-(4-carbamimidoylbenzyl)-4-phenylpyrrolidine-2-carboxamide dihydrochloride]
COC[C@H]1C[C@@H](C(=O)NCc2ccc(C(=N)N)cc2)N(C(=O)[C@H](N)CCc2ccccc2)C1 [Compound I-2, (2S,4S)-1-((R)-2-amino-4-phenylbutanoyl)-N-(4-carbamimidoylbenzyl)-4-(methoxymethyl)pyrrolidine-2-carboxamide dihydrochloride]
COC(=O)[C@@H]1C[C@@H](C(=O)NCc2ccc(C(=N)N)cc2)N(C(=O)[C@H](N)CCc2ccccc2)C1 [Compound I-1, Methyl (3R,5S)-1-((R)-2-amino-4-phenylbutanoyl)-5-((4-carbamimidoylbenzyl)carbamoyl)pyrrolidine-3-carboxylate ditrifluoroacetate]

From patent publication US12692229B2, “Masp-2 inhibitors and methods of use” (Omeros Corporation, priority 2019, dated 2026)
